Experiments:
[1] = general statement in the description, no test described; cited from earlier work
lipase CalB2 = target: T1, lipase CalB2 (Moesziomyces antarcticus, UniProt P41365); test: Targeted LC-MS proteomics of lipase bound to bis-enol-ester functionalized magnetic beads; type: binding; settings: compound C coupled to azide modified polystyrene magnetic beads; CalB2 + Herceptin mixture, over night 40° C.; after extensive washing; vs non-functionalized beads
T1 sequence (P41365 26-342): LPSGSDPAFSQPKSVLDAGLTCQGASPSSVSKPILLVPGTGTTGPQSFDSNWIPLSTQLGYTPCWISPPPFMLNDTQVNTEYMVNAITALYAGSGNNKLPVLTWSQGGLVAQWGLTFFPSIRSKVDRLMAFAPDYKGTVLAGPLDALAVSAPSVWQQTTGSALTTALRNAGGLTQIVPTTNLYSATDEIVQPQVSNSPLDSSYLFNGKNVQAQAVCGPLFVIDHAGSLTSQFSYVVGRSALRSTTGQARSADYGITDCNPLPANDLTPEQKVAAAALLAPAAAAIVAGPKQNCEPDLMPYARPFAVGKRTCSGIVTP
Method: Test sample: Herceptin (mAb; 0.2 μg/μl in Na-Phosphate-Buffer) as control protein for the LC-MS based proteomics workflow was mixed with the lipase CalB2 (CalB2; […] in Na-Phosphate-Buffer) in a ca. 1:1 (mol/mol) ratio) as target. The above-mentioned samples were addressed with compound C (bis-enol-ester) covalently coupled to 60 μg azide modified magnetic particles (60 μl of a […] aqueous solution were prepared) (Polystyrene based azide beads; CLK-1036-1, Jena-Bioscience) which were made by click reaction and purification (see protocol experiment Example 1 and general procedure described for the Jena-Bioscience click protocol). […]
The targeted LC-MS analysis was performed using Water/Acetonitrile gradients with TFA (0.05% v(v) as buffer. The separation column was a PepSwift Monolithic Capillary Column, 200 μm×5 cm, P/N: 161409. As mass spectrometer, a Thermo LTQ FT system was used. Further experimental design for quantitative analyses followed general experimental targeted LC-MS procedures. The proteins bound to the beads were applied to the LC-MS system by injection of 1 μl of the digested sample on the analytical column. […]

Row | SMILES | solubility in water [1] | binding of model lipase CalB2 to functionalized beads (LC-MS peptide peak intensities, FIG. 6) (lipase CalB2)
1 | CCCCCCCCCCC[C@@H](C[C@@H]1OC(=O)[C@H]1CCCCCC)OC(=O)[C@H](CC(C)C)NC=O [Orlistat] | highly insoluble in water | –
2 | C#CCCCC(=C/OC(=O)CCCCCCCCCCC)/C=C/OC(=O)CCCCCCCCCCC [bis-enol ester] | – | binds to beads functionalized with bis-enol ester even when subjected to extensive washing steps
